According to US9738634B2, “Heterocyclic amide compound and herbicide” (SYNGENTA PARTICIPATIONS AG, priority 2013, dated 2017):

Key:
Assay type in all cases: in vivo
Conditions in all cases: treatment dosage 320 g/ha
black-grass [1] = assay: Test Example 4: weedkilling efficacy by foliar treatment; H: black-grass
How it was run: (§1)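 Seeds are spot-sown into sterilized diluvial soil and covered with about 1.5 cm of soil. After 14 days' greenhouse growth at 25 to 30° C, plants are sprayed on stems and leaves with diluted emulsion at the stated g/ha rate, then scored at 3 weeks.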

catchweed = assay: Test Example 4: weedkilling efficacy by foliar treatment; O: catchweed
How it was run: as §1

crabgrass [2] = assay: Test Example 3: weedkilling efficacy through soil treatment; D: crabgrass
How it was run: (§2)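 Crop and weed responses were judged three weeks after a uniform surface spray of the water-diluted emulsion at the given g/ha rate. Seeds sat beneath about 1.5 cm of sterilized diluvial soil, and boxes stood in a greenhouse at 25 to 30° C.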

fig-leafed goosefoot [3] = assay: Test Example 3: weedkilling efficacy through soil treatment; M: fig-leafed goosefoot
How it was run: as §2

bulrush [4] = assay: Test Example 1: weedkilling efficacy, preemergent weed treatment in the submerged state; B: bulrush
How it was run: (§3)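 Submerged pre-emergence treatment, water-surface application of compound emulsion at g/ha dosages; 4 cm flooded alluvial soil, weeds sown and 2.5-leaf rice transplanted same day. Rated after 3 weeks, greenhouse.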

oval-leafed pondweed [5] = assay: Test Example 1: weedkilling efficacy, preemergent weed treatment in the submerged state; C: oval-leafed pondweed
How it was run: as §3

fig-leafed goosefoot [6] = assay: Test Example 4: weedkilling efficacy by foliar treatment; M: fig-leafed goosefoot
How it was run: as §1

Indian mallow [7] = assay: Test Example 3: weedkilling efficacy through soil treatment; K: Indian mallow
How it was run: as §2

directly sown rice [8] = assay: Test Example 4: foliar treatment, effect on crop; b: directly sown rice
How it was run: as §1

Italian ryegrass [9] = assay: Test Example 4: weedkilling efficacy by foliar treatment; I: Italian ryegrass
How it was run: as §1

rapeseed [10] = assay: Test Example 3: soil treatment, effect on crop; g: rapeseed
How it was run: as §2

birds-eye speedwell = assay: Test Example 4: weedkilling efficacy by foliar treatment; p: birds-eye speedwell
How it was run: as §1

rapeseed [11] = assay: Test Example 4: foliar treatment, effect on crop; g: rapeseed
How it was run: as §1

wheat [12] = assay: Test Example 3: soil treatment, effect on crop; e: wheat
How it was run: as §2

wild oat [13] = assay: Test Example 3: weedkilling efficacy through soil treatment; G: wild oat
How it was run: as §2

corn [14] = assay: Test Example 4: foliar treatment, effect on crop; c: corn
How it was run: as §1

green foxtail [15] = assay: Test Example 3: weedkilling efficacy through soil treatment; E: green foxtail
How it was run: as §2

wheat [16] = assay: Test Example 4: foliar treatment, effect on crop; e: wheat
How it was run: as §1

transplanted rice = assay: Test Example 1: preemergent weed treatment in the submerged state, effect on crop; a: transplanted rice
How it was run: as §3

corn [17] = assay: Test Example 3: soil treatment, effect on crop; c: corn
How it was run: as §2

barnyard grass [18] = assay: Test Example 3: weedkilling efficacy through soil treatment; F: barnyard grass
How it was run: as §2

barnyard grass [19] = assay: Test Example 4: weedkilling efficacy by foliar treatment; F: barnyard grass
How it was run: as §1

beet [20] = assay: Test Example 4: foliar treatment, effect on crop; f: beet
How it was run: as §1

crabgrass [21] = assay: Test Example 4: weedkilling efficacy by foliar treatment; D: crabgrass
How it was run: as §1

Italian ryegrass [22] = assay: Test Example 3: weedkilling efficacy through soil treatment; I: Italian ryegrass
How it was run: as §2

bulrush [23] = assay: Test Example 2: weedkilling efficacy, growth period weed treatment in the submerged state; B: bulrush
How it was run: (§4)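 Seedlings at 1-2 leaves in 4 cm-deep submerged alluvial soil received emulsion formulations on the water surface, dosed per hectare; effects were judged 3 weeks on.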

green foxtail [24] = assay: Test Example 4: weedkilling efficacy by foliar treatment; E: green foxtail
How it was run: as §1

chickweed [25] = assay: Test Example 4: weedkilling efficacy by foliar treatment; N: chickweed
How it was run: as §1

oval-leafed pondweed [26] = assay: Test Example 2: weedkilling efficacy, growth period weed treatment in the submerged state; C: oval-leafed pondweed
How it was run: as §4

redroot pigweed [27] = assay: Test Example 4: weedkilling efficacy by foliar treatment; L: redroot pigweed
How it was run: as §1

barnyard grass [28] = assay: Test Example 2: weedkilling efficacy, growth period weed treatment in the submerged state; A: barnyard grass
How it was run: as §4

common wind-grass [29] = assay: Test Example 3: weedkilling efficacy through soil treatment; J: common wind-grass
How it was run: as §2

black-grass [30] = assay: Test Example 3: weedkilling efficacy through soil treatment; H: black-grass
How it was run: as §2

soybean [31] = assay: Test Example 3: soil treatment, effect on crop; d: soybean
How it was run: as §2

chickweed [32] = assay: Test Example 3: weedkilling efficacy through soil treatment; N: chickweed
How it was run: as §2

common wind-grass [33] = assay: Test Example 4: weedkilling efficacy by foliar treatment; J: common wind-grass
How it was run: as §1

redroot pigweed [34] = assay: Test Example 3: weedkilling efficacy through soil treatment; L: redroot pigweed
How it was run: as §2

beet [35] = assay: Test Example 3: soil treatment, effect on crop; f: beet
How it was run: as §2

barnyard grass [36] = assay: Test Example 1: weedkilling efficacy, preemergent weed treatment in the submerged state; A: barnyard grass
How it was run: as §3

directly sown rice [37] = assay: Test Example 3: soil treatment, effect on crop; b: directly sown rice
How it was run: as §2

Indian mallow [38] = assay: Test Example 4: weedkilling efficacy by foliar treatment; K: Indian mallow
How it was run: as §1

soybean [39] = assay: Test Example 4: foliar treatment, effect on crop; d: soybean
How it was run: as §1

wild oat [40] = assay: Test Example 4: weedkilling efficacy by foliar treatment; G: wild oat
How it was run: as §1

## CC1=C(c2ccccc2)C(=O)N(C(C)(C)C(=O)Nc2cc(F)nc(F)c2)CO1 [B-4-04]
black-grass [1]
  H (black-grass) weedkilling efficacy grade: 4 (weed kill ratio 70% or more, less than 90%)
catchweed
  O (catchweed) weedkilling efficacy grade: 4 (weed kill ratio 70% or more, less than 90%)
Crabgrass [2]
  D (crabgrass) weedkilling efficacy grade: 5 (weed kill ratio 90% or more, (practically complete withering))
fig-leafed goosefoot [3]
  M (fig-leafed goosefoot) weedkilling efficacy grade: 3 (weed kill ratio 40% or more, less than 70%)
Bulrush [4]
  B (bulrush) weedkilling efficacy grade: 5 (weed kill ratio 90% or more, (practically complete withering))
oval-leafed pondweed [5]
  C (oval-leafed pondweed) weedkilling efficacy grade: 5 (weed kill ratio 90% or more, (practically complete withering))
fig-leafed goosefoot [6]
  M (fig-leafed goosefoot) weedkilling efficacy grade: 4 (weed kill ratio 70% or more, less than 90%)
Indian mallow [7]
  K (Indian mallow) weedkilling efficacy grade: 0 (weed kill ratio 5% or less (practically no effect))
Directly sown rice [8]
  b (directly sown rice) effect on crop grade: 4 (weed kill ratio 70% or more, less than 90%)
Italian ryegrass [9]
  I (Italian ryegrass) weedkilling efficacy grade: 4 (weed kill ratio 70% or more, less than 90%)
Rapeseed [10]
  g (rapeseed) effect on crop grade: 4 (weed kill ratio 70% or more, less than 90%)
birds-eye speedwell
  P (birds-eye speedwell) weedkilling efficacy grade: 4 (weed kill ratio 70% or more, less than 90%)
Rapeseed [11]
  g (rapeseed) effect on crop grade: 3 (weed kill ratio 40% or more, less than 70%)
Wheat [12]
  e (wheat) effect on crop grade: 0 (weed kill ratio 5% or less (practically no effect))
Wild oat [13]
  G (wild oat) weedkilling efficacy grade: 0 (weed kill ratio 5% or less (practically no effect))
Corn [14]
  c (corn) effect on crop grade: 1 (weed kill ratio 5% or more, less than 20%)
Green foxtail [15]
  E (green foxtail) weedkilling efficacy grade: 5 (weed kill ratio 90% or more, (practically complete withering))
Wheat [16]
  e (wheat) effect on crop grade: 4 (weed kill ratio 70% or more, less than 90%)
Transplanted rice
  a (transplanted rice) effect on crop grade: 0 (weed kill ratio 5% or less (practically no effect))
Corn [17]
  c (corn) effect on crop grade: 0 (weed kill ratio 5% or less (practically no effect))
Barnyard grass [18]
  F (barnyard grass) weedkilling efficacy grade: 5 (weed kill ratio 90% or more, (practically complete withering))
Barnyard grass [19]
  F (barnyard grass) weedkilling efficacy grade: 4 (weed kill ratio 70% or more, less than 90%)
Beet [20]
  f (beet) effect on crop grade: 4 (weed kill ratio 70% or more, less than 90%)
Crabgrass [21]
  D (crabgrass) weedkilling efficacy grade: 4 (weed kill ratio 70% or more, less than 90%)
Italian ryegrass [22]
  I (Italian ryegrass) weedkilling efficacy grade: 5 (weed kill ratio 90% or more, (practically complete withering))
Bulrush [23]
  B (bulrush) weedkilling efficacy grade: 5 (weed kill ratio 90% or more, (practically complete withering))
Green foxtail [24]
  E (green foxtail) weedkilling efficacy grade: 4 (weed kill ratio 70% or more, less than 90%)
Chickweed [25]
  N (chickweed) weedkilling efficacy grade: 3 (weed kill ratio 40% or more, less than 70%)
oval-leafed pondweed [26]
  C (oval-leafed pondweed) weedkilling efficacy grade: 5 (weed kill ratio 90% or more, (practically complete withering))
Redroot pigweed [27]
  L (redroot pigweed) weedkilling efficacy grade: 3 (weed kill ratio 40% or more, less than 70%)
Barnyard grass [28]
  A (barnyard grass) weedkilling efficacy grade: 5 (weed kill ratio 90% or more, (practically complete withering))
Common wind-grass [29]
  J (common wind-grass) weedkilling efficacy grade: 5 (weed kill ratio 90% or more, (practically complete withering))
black-grass [30]
  H (black-grass) weedkilling efficacy grade: 5 (weed kill ratio 90% or more, (practically complete withering))
Soybean [31]
  d (soybean) effect on crop grade: 0 (weed kill ratio 5% or less (practically no effect))
Chickweed [32]
  N (chickweed) weedkilling efficacy grade: 4 (weed kill ratio 70% or more, less than 90%)
Common wind-grass [33]
  J (common wind-grass) weedkilling efficacy grade: 4 (weed kill ratio 70% or more, less than 90%)
Redroot pigweed [34]
  L (redroot pigweed) weedkilling efficacy grade: 3 (weed kill ratio 40% or more, less than 70%)
Beet [35]
  f (beet) effect on crop grade: 2 (weed kill ratio 20% or more, less than 40%)
Barnyard grass [36]
  A (barnyard grass) weedkilling efficacy grade: 5 (weed kill ratio 90% or more, (practically complete withering))
Directly sown rice [37]
  b (directly sown rice) effect on crop grade: 3 (weed kill ratio 40% or more, less than 70%)
Indian mallow [38]
  K (Indian mallow) weedkilling efficacy grade: 5 (weed kill ratio 90% or more, (practically complete withering))
Soybean [39]
  d (soybean) effect on crop grade: 1 (weed kill ratio 5% or more, less than 20%)
Wild oat [40]
  G (wild oat) weedkilling efficacy grade: 2 (weed kill ratio 20% or more, less than 40%)
